Measured values published in publication PMC5038265 (Antimicrobial Agents and Chemotherapy, 2016).
Values after ≈ are worked out from the molar mass of the structure shown. Read-outs that look alike come from different tables or passages of the source.

What was measured:
in vivo = settings: for AUC(0-t) / Cmax / bioavailability / AUC(0-inf) / MRT / Vd / clearance / half-life / Tmax: in vivo; for α-t1/2 % AUC / β-t1/2 % AUC: i.v.
Procedure: Mouse pharmacokinetic studies were conducted by using female CD-1 mice for compounds 1, 11, and 12, while BALB/c mice were used for compound 13. Mouse body weights were 19 to 28 g, and on the morning of dosing, mice were split randomly into 3 dosing groups to receive the test article by either intravenous (i.v.) tail vein injection or oral (p.o.) gavage. After dosing, blood samples were collected via cardiac puncture at specific time points (n = 3 mice/time point) through 24 h (K2EDTA as an anticoagulant) and processed for plasma. Antibiotic concentrations in the plasma samples were analyzed by liquid chromatography-tandem mass spectrometry (LC-MS/MS). The LC-MS/MS analysis was conducted by using analyte/internal standard peak area methods. The internal standard was AN3365 ([21]), and the instrument used was an API4000 QTRAP instrument (AB Sciex). The limit of quantitation (LOQ) was 1 or 2 ng/ml. Pharmacokinetic analyses of the mean plasma concentration-time profiles were performed by using WinNonlin Pro version 5.2. A compartmental model was used for the data for i.v. dosing, and a noncompartmental model was used for the data for p.o. dosing. […] Compounds 1 and 13 were formulated in saline (0.9% [wt/vol] NaCl) at 7.5 mg/ml, and the pH was adjusted to >5 by the addition of NaOH. Compound 11 was formulated to 6.5 mg/ml in water-dimethylacetamide-ethanol (EtOH) (76:19:5), and the pH was adjusted to >5 by the addition of NaOH. Compound 12 was formulated to 7.5 mg/ml in PEG 300-propylene glycol (PG)-water (55:25:20), and the pH was adjusted to >5 by the addition of NaOH.

[1] = system: M. smegmatis ATCC 700084 and leuS resistant mutants; assay: Liquid culture MIC for compound 1-resistant M. smegmatis mutants; format: cell-based, Mycobacterium smegmatis; settings: Mycolicibacterium smegmatis
Text: Mutants resistant to compound 1 were isolated on Middlebrook 7H10 medium plus 10% (vol/vol) oleic albumin dextrose catalase (OADC) supplement (Becton Dickinson) containing compound 1 at 4× MIC. Resistance was confirmed by measuring the mutant MIC values essentially as described previously by Collins and Franzblau ([17]).

M. tuberculosis H37Rv [2] = assay: MIC for M. tuberculosis H37Rv (resazurin/alamarBlue); format: cell-based, Mycobacterium tuberculosis; settings: for MIC: Mycobacterium tuberculosis, H37RV, read-out: MIC M.tb H37Rv
Vero cells = assay: In vitro cytotoxicity assay (MTT); format: cell-based, African green monkey; settings: Chlorocebus sabaeus, 72 h
Procedure: Vero epithelial cells (from African green monkey; ATCC CCL-81) were cultured in Dulbecco's modified Eagle's medium (DMEM) supplemented with 10% fetal bovine serum (FBS) and maintained in a humidified incubator (37°C in 5% CO2). Cells were dislodged with a cell scraper, collected by centrifugation, resuspended in fresh medium at ∼10^6 cells/ml, dispensed into 96-well microtiter plates ([…]), and incubated for 18 h at 37°C. Twofold serial dilutions of test compounds in DMEM with FBS were subsequently added, and cells were incubated for another 72 h. In triplicate studies, the cytopathic effects of compounds were evaluated colorimetrically by using the 3-(4,5-dimethyl-2-thiazolyl)-2,5-diphenyl-2H-tetrazolium bromide (MTT) cell proliferation assay (ATCC). IC50 data were obtained from dose-response curves plotted by using GraphPad Prism 5.

M. tuberculosis LeuRS = M. tuberculosis LeuRS (Mycobacterium tuberculosis, UniProt P9WFV1); assay: biochemical; set-up: species or system M. tuberculosis H37Rv
[3] = molecular target: M. tuberculosis LeuRS editing domain (Mycobacterium tuberculosis, UniProt P9WFV1); assay: biochemical; format: binding
in vitro = in vitro ADME; settings: mouse plasma, 1 and 10 µg/ml, ultrafiltration; read-out: Mouse PPB (converted)
Procedure: Compounds were added to 1.5-ml aliquots of mouse plasma at concentrations of 1 and 10 µg/ml and then incubated in a shaking water bath at 37°C for 15 min. Both samples were treated similarly, and a 0.5-ml aliquot was removed from each tube and added to the filter reservoir of Microcon centrifugal filter devices (Ultracel YM-30 with a molecular mass cutoff of 30 kDa). The devices were centrifuged at 1,000 × g for 10 min, and 100 μl of the filtrate was transferred to a 96-well plate and diluted 5-fold. Ten-microliter volumes of the samples were injected and analyzed with the LC-MS/MS system. All samples were analyzed in duplicate. Quantitation was based on the peak area ratio of the analyte over the internal standard, and all integrations were performed with peak areas by using Analyst version 1.4.1 (Applied Biosystems, Foster City, CA, USA). Plasma protein binding was calculated based on the following equation: Plasma Protein Binding (%)=(PeakAreaPlasma UltrafilrateSpiked−PeakAreaPlasmaFiltrate)/PeakAreaPlasma UltrafiltrateSpiked×100

HepG2 cells = assay: HepG2 cell viability (Janus green staining); format: cell-based; settings: Homo sapiens, 168 h, HepG2, 7 days, read-out: Mean EC50 ± SD Cell viability
Procedure: (§1) The human liver carcinoma-derived HepG2 cell line was obtained from the ATCC (ATCC HB-8065). HepG2 cells were grown in Dulbecco's modified Eagle's medium containing 10% fetal calf serum, 1 mM sodium pyruvate, 0.1 mM essential amino acids, and 50 U/ml penicillin-streptomycin at 37°C with 5% CO2. HepG2 cells were seeded into 96-well plates at 3,000 cells/200 μl/well in cell culture medium. Cells were then grown in the presence of the compounds at 37°C in 10% CO2 for 7 days in at least duplicate concentrations, with the medium and compounds being replaced on the fourth day. After 7 days, the levels of SDHA (subunit A of the succinate dehydrogenase complex) and COX1 (cytochrome c oxidase) were determined by using the MitoSciences In-Cell enzyme-linked immunosorbent assay (ELISA) kit. Janus green staining was used to determined cell viability after 7 days (In-Cell ELISA kit, catalog number MS643).

COX1 in HepG2 cells = assay: Mitochondrial protein synthesis assay, COX1 level; format: cell-based; settings: Homo sapiens, 168 h; HepG2, 7 days; read-out: Mean EC50 ± SD COX1
Procedure: as §1

SDHA in HepG2 cells = assay: Mitochondrial protein synthesis assay, SDHA level; format: cell-based; settings: Homo sapiens, 168 h; HepG2, 7 days; read-out: Mean EC50 ± SD SDHA
Procedure: as §1

M. tuberculosis H37Rv [4] = format: in vivo, C57BL/6J mice; settings: mouse, in vivo
M. tuberculosis H37Rv [5] = assay: microbe, parasite or virus in culture; format: cell-based; settings: Mycobacterium tuberculosis, read-out: MIC on Middlebrook 7H10 agar
[6] = mouse, iv, 30 mg/kg, α-t1/2, mouse
[7] = mouse, iv, 30 mg/kg, β-t1/2, mouse
[8] = mouse, po, 30 mg/kg, Terminal t1/2, mouse
[9] = female, CD-1, mouse, iv, 15 mg/kg

M. tuberculosis LeuRS, sequence (P9WFV1 whole entry, the tested form may be a part): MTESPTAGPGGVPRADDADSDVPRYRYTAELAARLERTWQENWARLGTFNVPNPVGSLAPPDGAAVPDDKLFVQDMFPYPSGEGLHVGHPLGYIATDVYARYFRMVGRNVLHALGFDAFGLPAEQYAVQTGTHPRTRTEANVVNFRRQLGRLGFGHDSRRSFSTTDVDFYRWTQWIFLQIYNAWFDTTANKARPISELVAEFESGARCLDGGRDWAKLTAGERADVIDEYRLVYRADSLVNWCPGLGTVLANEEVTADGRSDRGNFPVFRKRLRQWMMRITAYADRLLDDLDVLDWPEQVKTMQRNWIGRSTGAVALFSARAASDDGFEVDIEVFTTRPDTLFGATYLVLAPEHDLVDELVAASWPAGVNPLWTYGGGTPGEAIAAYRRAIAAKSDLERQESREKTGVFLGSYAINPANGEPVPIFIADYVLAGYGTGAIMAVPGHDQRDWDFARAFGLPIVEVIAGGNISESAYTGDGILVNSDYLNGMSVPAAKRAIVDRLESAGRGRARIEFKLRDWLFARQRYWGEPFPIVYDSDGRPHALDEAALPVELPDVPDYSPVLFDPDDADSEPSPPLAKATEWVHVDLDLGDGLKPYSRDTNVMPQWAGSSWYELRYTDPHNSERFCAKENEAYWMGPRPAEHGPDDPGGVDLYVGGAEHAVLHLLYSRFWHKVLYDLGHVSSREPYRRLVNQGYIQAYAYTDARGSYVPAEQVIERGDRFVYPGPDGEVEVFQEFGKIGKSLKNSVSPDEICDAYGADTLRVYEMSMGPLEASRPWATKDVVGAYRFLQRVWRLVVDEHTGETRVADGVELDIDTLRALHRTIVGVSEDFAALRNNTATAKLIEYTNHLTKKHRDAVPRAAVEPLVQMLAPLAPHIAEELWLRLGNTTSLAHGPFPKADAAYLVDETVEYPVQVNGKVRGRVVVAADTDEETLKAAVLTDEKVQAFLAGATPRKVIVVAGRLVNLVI
M. tuberculosis LeuRS editing domain, sequence (P9WFV1 309-513): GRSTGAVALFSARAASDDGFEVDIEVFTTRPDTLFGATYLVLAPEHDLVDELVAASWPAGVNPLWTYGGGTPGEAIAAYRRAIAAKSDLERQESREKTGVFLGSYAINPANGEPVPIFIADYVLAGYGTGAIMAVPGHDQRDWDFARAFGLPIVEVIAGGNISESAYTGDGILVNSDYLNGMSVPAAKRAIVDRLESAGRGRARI

Compound | MIC (M. tuberculosis H37Rv [2]) | EC50 (Vero cells) | IC50 (M. tuberculosis LeuRS; read-out: IC50 M.tb LeuRS) | α-t1/2 % AUC (in vivo; mouse, 30 mg/kg) | β-t1/2 % AUC (in vivo; mouse, 30 mg/kg) | AUC(0-inf) (in vivo; mouse, iv, 30 mg/kg) | Cmax (in vivo; mouse, iv, 30 mg/kg) | MRT (in vivo; mouse, iv, 30 mg/kg) | Vd (in vivo; mouse, iv, 30 mg/kg) | clearance (in vivo; mouse, iv, 30 mg/kg) | half-life (in vivo; [6]) | half-life (in vivo; [7]) | AUC(0-t) (in vivo; mouse, po, 30 mg/kg) | Cmax (in vivo; mouse, po, 30 mg/kg) | Tmax (in vivo; mouse, po, 30 mg/kg) | bioavailability (in vivo; mouse, po, 30 mg/kg) | half-life (in vivo; [8]) | fraction unbound (in vitro) | EC50 (HepG2 cells) | EC50 (COX1 in HepG2 cells) | other results
CCOc1cccc2c1B(O)OC2CN (centres unmarked) [Compound 1] | 0.26 µg/mL (≈ 1.26 µM) | > 50 µM | 0.28 µM | – | – | – | – | – | – | – | – | – | – | – | – | – | – | – | – | – | AUC(0-t) (in vivo; CD-1, mouse, po, 30 mg/kg): 15000 ng·h/mL; Cmax (in vivo; CD-1, mouse, po, 30 mg/kg): 4330 ng/mL; bioavailability (in vivo; CD-1, mouse, po, 30 mg/kg): 55%; MIC ([1]; ATCC700084, M. smegmatis ATCC 700084, liquid culture): 1 µg/mL (≈ 4.83 µM); MIC ([1]; ATCC700084, M. smegmatis RM1 leuS Δ421–462, liquid culture): > 256 µg/mL
CCOc1cccc2c1B(O)O[C@@H]2CN [Compound 2] | 0.13 µg/mL (≈ 0.628 µM) | > 50 µM | 0.13 µM | 5 % AUC | 95 % AUC | 13800 ng·h/mL | 8900 ng/mL | 2.1 h | 2.12 L/kg | 36.3 mL/min/kg | 0.06 h | 1.5 h | 13200 ng·h/mL | 3400 ng/mL | 0.5 h | 96% | 1.8 h | 0.94 | – | – | No. of sites ([3]; ITC, 25°C, with AMP): 1.05; ΔGap ([3]; ITC, 25°C, with AMP): -7.4 kcal/mol; ΔHap ([3]; ITC, 25°C, with AMP): -1.1 kcal/mol; −TΔSap ([3]; ITC, 25°C, with AMP): -6.3 kcal/mol; Kd ([3]; ITC, 25°C, with AMP, read-out: Kd): 3.7 µM
CCOc1ccc(Br)c2c1B(O)OC2CN (centres unmarked) [Compound 11] | 0.05 µg/mL (≈ 0.175 µM) | > 50 µM | – | – | – | – | – | – | – | – | – | – | 35900 ng·h/mL | 7200 ng/mL | 1 h | 39% | 2.7 h | 0.5 | – | – | AUC(0-inf) (in vivo; [9]): 45800 ng·h/mL; Cmax (in vivo; [9]): 18000 ng/mL; MRT (in vivo; [9]): 3 h; Vd (in vivo; [9]): 0.968 L/kg; clearance (in vivo; [9]): 5.47 mL/min/kg; half-life (in vivo; female, CD-1, mouse, iv, 15 mg/kg, α-t1/2, mouse): 0.09 h; half-life (in vivo; female, CD-1, mouse, iv, 15 mg/kg, β-t1/2, mouse): 2.08 h; α-t1/2 % AUC (in vivo; mouse, 15 mg/kg): 2 % AUC; β-t1/2 % AUC (in vivo; mouse, 15 mg/kg): 98 % AUC; improvement of MIC values over compound 1 (M. tuberculosis H37Rv [2]; M. tuberculosis H37Rv): more than 5 fold; IC50 (M. tuberculosis LeuRS): 0.11 µM; Kd [3]: 0.04 µM; No. of sites [3]: 1.02; ΔGap [3]: -10.0 kcal/mol; ΔHap [3]: -5.5 kcal/mol; −TΔSap [3]: -4.6 kcal/mol
CCOc1ccc(F)c2c1B(O)O[C@@H]2CN [Compound 12] | 0.05 µg/mL (≈ 0.222 µM) | – | 0.08 µM | 7 % AUC | 93 % AUC | 26800 ng·h/mL | 13700 ng/mL | 3.4 h | 3.81 L/kg | 18.6 mL/min/kg | 0.11 h | 2.53 h | 23800 ng·h/mL | 5000 ng/mL | 1 h | 89% | 2.7 h | 0.84 | 23 ± 1.4 µM | > 150 µM | EC50 (SDHA in HepG2 cells): 39.5 ± 9.2 µM
CCOc1ccc(Cl)c2c1B(O)O[C@@H]2CN [Compound 13] | 0.02 µg/mL (≈ 0.0828 µM) | – | – | 2 % AUC | 98 % AUC | 51600 ng·h/mL | 13600 ng/mL | 5.4 h | 3.14 L/kg | 9.7 mL/min/kg | 0.1 h | 3.83 h | 47500 ng·h/mL | 6400 ng/mL | 0.25 h | 92% | 3.1 h | 0.77 | 80 ± 5.7 µM | > 150 µM | IC50 (M. tuberculosis LeuRS): 0.06 µM; EC50 (SDHA in HepG2 cells): 20.5 ± 2.1 µM; Kd [3]: 0.075 µM; No. of sites [3]: 1.19; ΔGap [3]: -9.7 kcal/mol; ΔHap [3]: -4.2 kcal/mol; −TΔSap [3]: -5.5 kcal/mol
CC(=O)NC[C@H]1CN(c2ccc(N3CCOCC3)c(F)c2)C(=O)O1 [Linezolid, linezolid] | – | – | – | – | – | – | – | – | – | – | – | – | – | – | – | – | – | – | > 150 µM | 27.3 ± 10.8 µM | reduction in CFU (M. tuberculosis H37Rv [4]): 2.6 log10; MIC values used in kill kinetics experiment (M. tuberculosis H37Rv [2]): 0.6 µg/mL (≈ 1.78 µM); EC50 (SDHA in HepG2 cells): > 150 µM
COc1c(N2C[C@@H]3CCCN[C@@H]3C2)c(F)cc2c(=O)c(C(=O)O)cn(C3CC3)c12 [Moxifloxacin, moxifloxacin, reference compound] | – | – | – | – | – | – | – | – | – | – | – | – | – | – | – | – | – | – | – | – | MIC (M. tuberculosis H37Rv [5]): 0.08 µg/mL (≈ 0.199 µM); MIC values used in kill kinetics experiment (M. tuberculosis H37Rv [2]; M. tuberculosis H37Rv, Fig. 6): 0.06 µg/mL (≈ 0.149 µM)
